Results on two compounds are retold here after the NIST ThermoML archive (doi:10.1016/j.fluid.2012.01.029).

± gives the expanded uncertainty stated by the source.

The conditions of this series: 293.15 K; 101.33 kPa; Liquid; Vibrating tube method.

As for `NCCO` [2-aminoethan-1-ol], the mass density stood at 1017.9 ± 0.3 kg/m3.

For `CN(CCO)CCO` [N-methyldiethanolamine], the mass density stood at 1037.7 ± 0.3 kg/m3.
